Source: patent publication US9468212B2, “Antifungal compositions” (DSM IP ASSETS B.V., priority 2013, dated 2016)
Several values for one entry are separate records, joined by “and”; a condition that tells them apart may be missing. Identical values can stand only once.

What was measured:
Penicillium italicum = experiment: Treatment of oranges: wounded, inoculated with Penicillium italicum, wound treated with antifungal composition (Examples 7-9); assay type: in vivo; details: for Observed antifungal activity O (%) / Number of moulded oranges/total number of 8 oranges: oranges, 20° C.
Experimental: The expected antifungal activity (E in %) of the combined antifungal composition comprising both active ingredients was calculated according to the Colby equation (Colby, 1967): E=X+Y−[(X·Y)/100] wherein X and Y are the observed antifungal activities (in %) of the individual active ingredients X and Y, respectively.
Eight fresh, organic oranges were used per treatment. Each orange was soaked in a 180 ppm hypochlorite solution for 10 minutes, then rinsed thoroughly with fresh tap water and dried. The peel of each disinfected orange was wounded once using a cork borer according to the method described by de Lapeyre de Bellaire and Dubois (1987). Subsequently, each wound was inoculated with 10 μl of a Penicillium italicum suspension containing 5×10^5 of spores/ml. After incubation for 3 hours at 20° C., each wound and the orange peel area of 1 cm around the wound was treated with in total […] of a freshly prepared aqueous antifungal composition comprising either 500 ppm natamycin (DSM Food Specialties, Delft, The Netherlands), 300 ppm fludioxonil or both. Each antifungal composition also comprised 3.2% (w/w) beeswax, 0.8% (w/w) glycerol, 0.7% (w/w) polyoxyethylene sorbitan monostearate (Tween 60), 0.1% (w/w) polyoxyethylene sorbitan monooleate (Tween 80), 0.05% (w/w) methylhydroxyethyl-cellulose (MHEC), 0.03% (w/w) anti-foaming agent, 0.02% (w/w) xanthan gum, 0.02% (w/w) citric acid, 0.01% (w/w) lactic acid and 0.01% potassium sorbate. A composition without natamycin or fludioxonil was used as control.
The treated oranges were incubated in a closed box in the dark at 20° C. and assessed on mould growth during a 27-day incubation period.
The experiment was conducted as described in Example 7, except for the fact that each wounded and inoculated orange was treated with 150 μl of a freshly prepared aqueous antifungal composition comprising either 250 ppm natamycin (DSM Food Specialties, Delft, The Netherlands), 100 ppm fludioxonil or both. During incubation, the treated oranges were assessed on mould growth according to the two methods described in Example 5.
The experiment was conducted as described in Example 7, except for the fact that each wounded and inoculated orange was treated with 150 μl of a freshly prepared aqueous antifungal composition comprising either 500 ppm natamycin (DSM Food Specialties, Delft, The Netherlands), 400 ppm fenpiclonil or both. During a 23-day incubation period, the treated oranges were assessed on mould growth according to the two methods described in Example 5.

mould = experiment: Treatment of pineapples: mould incidence on the pineapple rinds after storage (Example 11); assay type: in vivo; details: 200 ppm natamycin, 250 ppm fludioxonil or both, 28 days of storage (21 days at 7.5° C., 7 days at 18 to 20° C.)
Text: In this experiment pineapples were selected from a packing plant located in Costa Rica. These pineapples were selected based on uniformity in color and size. Furthermore, they were free from visual mold growth or any other visual damage caused by plagues or diseases.
The surface of the pineapples was first disinfected by immersion of the fruits for one minute in a solution comprising 150 ppm sodium hypochlorite. Next, the fruits were dried and thereafter the antimicrobial compositions were applied on the fruits using a modified watering can. This shower, to simulate the wax cascade used in pineapple packing plants, covered the rind of the fruits with a thin film of wax. The crown of the pineapple was not treated. […]
After 28 days, the mould incidence on the pineapple rinds was assessed using the following method. The number of pineapples with visual mould incidence on the rind per total of 40 pineapples was counted for all compositions. Subsequently, the antifungal activity (in %) of the individual and combined active ingredients (compositions B, C and D) was determined by calculating the reduction in mould incidence observed on the pineapple rind compared to composition A. The observed antifungal activity of composition D was compared to the expected antifungal activity of composition D according to the Colby method (Colby, 1967) as described in Example 5.

[1] = 250 ppm natamycin, 100 ppm fludioxonil or both, 26-27 days
[2] = 250 ppm natamycin, 100 ppm fludioxonil or both, 19 days
[3] = 250 ppm natamycin, 100 ppm fludioxonil or both, 20 days
[4] = 250 ppm natamycin, 100 ppm fludioxonil or both, 21 days
[5] = 250 ppm natamycin, 100 ppm fludioxonil or both, 22 days
[6] = 250 ppm natamycin, 100 ppm fludioxonil or both, 23 days
[7] = 250 ppm natamycin, 100 ppm fludioxonil or both, 25 days
[8] = 250 ppm natamycin, 100 ppm fludioxonil or both, Day 14-18
[9] = 250 ppm natamycin, 100 ppm fludioxonil or both, Day 19-22
[10] = 250 ppm natamycin, 100 ppm fludioxonil or both, Day 23-27
[11] = 500 ppm natamycin, 300 ppm fludioxonil or both, 22-27 days
[12] = 500 ppm natamycin, 300 ppm fludioxonil or both, 18 days
[13] = 500 ppm natamycin, 300 ppm fludioxonil or both, 19 days
[14] = 500 ppm natamycin, 300 ppm fludioxonil or both, 20 days
[15] = 500 ppm natamycin, 300 ppm fludioxonil or both, 21 days
[16] = 500 ppm natamycin, 300 ppm fludioxonil or both, Day 18-27

| SMILES | Observed antifungal activity O (%) (Penicillium italicum; [1]) | Observed antifungal activity O (%) (Penicillium italicum; [2]) | Observed antifungal activity O (%) (Penicillium italicum; [3]) | Observed antifungal activity O (%) (Penicillium italicum; [4]) | Observed antifungal activity O (%) (Penicillium italicum; [5]) | Observed antifungal activity O (%) (Penicillium italicum; [6]) | Observed antifungal activity O (%) (Penicillium italicum; [7]) | Number of moulded oranges/total number of 8 oranges (Penicillium italicum; [8]) | Number of moulded oranges/total number of 8 oranges (Penicillium italicum; [9]) | Number of moulded oranges/total number of 8 oranges (Penicillium italicum; [10]) | Observed antifungal activity O (%) (Penicillium italicum; [11]) | Observed antifungal activity O (%) (Penicillium italicum; [12]) | Observed antifungal activity O (%) (Penicillium italicum; [13]) | Observed antifungal activity O (%) (Penicillium italicum; [14]) | Observed antifungal activity O (%) (Penicillium italicum; [15]) | Number of moulded oranges/total number of 8 oranges (Penicillium italicum; [16]) | Observed antifungal activity O (%) (mould) | other results |
| --- | --- | --- | --- | --- | --- | --- | --- | --- | --- | --- | --- | --- | --- | --- | --- | --- | --- | --- |
| N#Cc1c[nH]cc1-c1cccc2c1OC(F)(F)O2 [Fludioxonil, fludioxonil] | 0% | 9% | 2% | 0% | 0% | 0% | 0% | 8/8 | 8/8 | 8/8 | 17% | 17% | 17% | 17% | 17% | 7 and 7/8 | 90% | moulded oranges of the 8 oranges (Penicillium italicum; 250 ppm natamycin, 100 ppm fludioxonil or both, after 14 through 27 days of incubation): 8 |
| C[C@@H]1C/C=C/C=C/C=C/C=C/[C@H](O[C@@H]2O[C@H](C)[C@@H](O)[C@H](N)[C@@H]2O)C[C@@H]2O[C@](O)(C[C@@H](O)C[C@H]3O[C@@H]3/C=C/C(=O)O1)C[C@H](O)[C@H]2C(=O)O [Natamycin, natamycin] | 17% | 36% | 34% | 32% | 29% | 25% | 19% | 6/8 | 7/8 | 7/8 | 14% | 32% | 29% | 20% | 16% | 6 and 6/8 | 35% | Observed antifungal activity O (%) (Penicillium italicum; 500 ppm natamycin, 400 ppm fenpiclonil or both, 22-23 days): 14%; Observed antifungal activity O (%) (Penicillium italicum; 500 ppm natamycin, 400 ppm fenpiclonil or both, 12 days): 55%; Observed antifungal activity O (%) (Penicillium italicum; 500 ppm natamycin, 400 ppm fenpiclonil or both, 13 days): 52%; Observed antifungal activity O (%) (Penicillium italicum; 500 ppm natamycin, 400 ppm fenpiclonil or both, 14 days): 48%; Observed antifungal activity O (%) (Penicillium italicum; 500 ppm natamycin, 400 ppm fenpiclonil or both, 15 days): 45%; Observed antifungal activity O (%) (Penicillium italicum; 500 ppm natamycin, 400 ppm fenpiclonil or both, 16 days): 43%; Observed antifungal activity O (%) (Penicillium italicum; 500 ppm natamycin, 400 ppm fenpiclonil or both, 18 days): 32%; Observed antifungal activity O (%) (Penicillium italicum; 500 ppm natamycin, 400 ppm fenpiclonil or both, 19 days): 29%; Observed antifungal activity O (%) (Penicillium italicum; 500 ppm natamycin, 400 ppm fenpiclonil or both, 20 days): 20%; Observed antifungal activity O (%) (Penicillium italicum; 500 ppm natamycin, 400 ppm fenpiclonil or both, 21 days): 16%; Number of moulded oranges/total number of 8 oranges (Penicillium italicum; 500 ppm natamycin, 400 ppm fenpiclonil or both, Day 14-15): 5 and 5/8; Number of moulded oranges/total number of 8 oranges (Penicillium italicum; 500 ppm natamycin, 400 ppm fenpiclonil or both, Day 16): 5/8; Number of moulded oranges/total number of 8 oranges (Penicillium italicum; 500 ppm natamycin, 400 ppm fenpiclonil or both, Day 18): 6/8; Number of moulded oranges/total number of 8 oranges (Penicillium italicum; 500 ppm natamycin, 400 ppm fenpiclonil or both, Day 19-23): 6/8 |
